pEC50: −log10 of the molar value. Like-named read-outs stand apart in the source and are kept apart here.
Biological target: human cannabinoid CB2 receptor (Homo sapiens, UniProt P34972)
Assay: Cannabinoid CB2 receptor agonist activity (yeast reporter assay, FDGlu fluorescence)
Type: cell-based
Settings: for Emax: read-out: efficacy value (Emax relative to HU210) at the cloned human cannabinoid CB2 receptor
Description: Determination of Cannabinoid CB2 Receptor Agonist Activity
The cannabinoid CB2 receptor agonist activity of the compounds of formula (I)-(IV) was determined in accordance with the following experimental method.
Yeast (Saccharomyces cerevisiae) cells expressing the human cannabinoid CB2 receptor were generated by integration of an expression cassette into the ura3 chromosomal locus of yeast strain MMY23. This cassette consisted of DNA sequence encoding the human CB2 receptor flanked by the yeast GPD promoter to the 5′ end of CB2 and a yeast transcriptional terminator sequence to the 3′ end of CB2. MMY23 expresses a yeast/mammalian chimeric G-protein alpha subunit in which the C-terminal 5 amino acids of Gpa1 are replaced with the C-terminal 5 amino acids of human Gαi3 (as described in Brown et al. (2000), Yeast 16:11-22). Cells were grown at 30° C. in liquid Synthetic Complete (SC) yeast media (Guthrie and Fink (1991), Methods in Enzymology, Vol. 194) lacking uracil, tryptophan, adenine and leucine to late logarithmic phase (approximately 6 OD600/ml).
Agonists were prepared as 10 mM stocks in DMSO. […] Agonist solutions in DMSO (1% final assay volume) were transferred into black, clear bottom, microtitre plates from NUNC (96- or 384-well). Cells were suspended at a density of 0.2 OD600/ml in SC media lacking histidine, uracil, tryptophan, adenine and leucine and supplemented with 10 mM 3-aminotriazole, 0.1M sodium phosphate pH 7.0, and […] fluorescein di-β-D-glucopyranoside (FDGlu). This mixture (50 ul per well for 384-well plates, 200 ul per well for 96-well plates) was added to agonist in the assay plates (Multidrop 384, Labsystems). After incubation at 30° C. for 24 hours, fluorescence resulting from degradation of FDGlu to fluorescein due to exoglucanase, an endogenous yeast enzyme produced during agonist-stimulated cell growth, was determined using a Spectrofluor microtitre plate reader (Tecan; excitation wavelength: 485 nm; emission wavelength: 535 nm). Fluorescence was plotted against compound concentration and iteratively curve fitted using a four parameter fit to generate a concentration effect value. Efficacy (Emax) was calculated from the equation
where Max[compound X] and Min[compound X] are the fitted maximum and minimum respectively from the concentration effect curve for compound X, and Max[HU210] and Min[HU210] are the fitted maximum and minimum respectively from the concentration effect curve for (6aR,10aR)-3-(1,1′-Dimethylheptyl)-6a,7,10,10a-tetrahydro-1-hydroxy-6,6-dimethyl-6H-dibenzo[b,d]pyran-9-methanol (HU210; available from Tocris). Equieffective molar ratio (EMR) values were calculated from the equation
Where EC50 [compound X] is the EC50 of compound X and EC50 [HU210] is the EC50 of HU210.

[1] = EC50 value at the cloned human cannabinoid CB2 receptor

Chain of human cannabinoid CB2 receptor (P34972 whole entry): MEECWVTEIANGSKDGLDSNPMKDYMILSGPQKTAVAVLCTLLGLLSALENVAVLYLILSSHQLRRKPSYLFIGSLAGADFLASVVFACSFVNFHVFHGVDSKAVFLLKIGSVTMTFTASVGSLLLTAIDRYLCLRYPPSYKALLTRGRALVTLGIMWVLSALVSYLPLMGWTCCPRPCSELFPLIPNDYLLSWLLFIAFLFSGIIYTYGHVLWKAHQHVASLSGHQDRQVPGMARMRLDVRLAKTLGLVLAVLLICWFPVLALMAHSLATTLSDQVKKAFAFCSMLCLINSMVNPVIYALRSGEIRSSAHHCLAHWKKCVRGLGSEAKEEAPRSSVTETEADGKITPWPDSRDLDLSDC

SMILES | pEC50 [1] | Emax [%] | pEC50 (read-out: EC50 value at the cloned human cannabinoid CB2 receptor)
COc1cccc(Nc2ncc(C(=O)NC3CCCC3)c(C(F)(F)F)n2)c1 [Example 76, 3-Methoxyphenylamino-4-trifluoromethyl-pyrimidine-5-carboxylic acid cyclopentylamide] | 6.00 to 6.52 | > 50 | –
O=C(NC1CCCC1)c1cnc(Nc2cccc(Cl)c2Cl)nc1C(F)(F)F [Example 77, 2,3-Dichlorophenylamino-4-trifluoromethyl-pyrimidine-5-carboxylic acid cyclopentylamide] | 6.00 to 6.52 | > 50 | –
O=C(c1cnc(Nc2cccc(F)c2)nc1C(F)(F)F)N1CCCCC1 [Example 78, 1-[2-(3-fluorophenylamino)-4-trifluoromethyl-pyrimidin-5-yl]-1-piperidin-1-yl-methanone] | 6.00 to 6.52 | > 50 | –
CS(=O)(=O)N1CCN(C(=O)c2cnc(Nc3cccc(Cl)c3)nc2C(F)(F)F)CC1 [Example 79, 1-[2-(3-chlorophenylamino)-4-trifluoromethyl-pyrimidin-5-yl]-1-(4-methanesulfonyl-piperazin-1-yl)-methanone] | 6.00 to 6.52 | > 50 | –
O=C(NC[C@H]1CCCO1)c1cnc(Nc2cccc(Br)c2)nc1C(F)(F)F [Example 80, 2-(3-bromophenylamino)-4-trifluoromethyl-pyrimidine-5-carboxylic acid [R-1-(tetrahydrofuran-2-yl)methyl]-amide] | 6.00 to 6.52 | > 50 | –
O=C(NC1CCS(=O)(=O)CC1)c1cnc(Nc2cccc(Cl)c2Cl)nc1C(F)(F)F [Example 82, 2-(2,3-Dichlorophenylamino)-4-trifluoromethyl-pyrimidine-5-carboxylic acid (1,1-dioxo-tetrahydro-2H-thiopyran-4-yl)-amide] | 6.00 to 6.52 | > 50 | –
O=C(NCC1CC1)c1cnc(Nc2cccc(F)c2)nc1C(F)(F)F [Example 83, 2-(3-Fluoro-phenylamino)-4-trifluoromethyl-pyrimidine-5-carboxylic acid cyclopropylmethyl-amide] | 6.00 to 6.52 | > 50 | –
O=C(NCC1CC1)c1cnc(Nc2cccc(Cl)c2)nc1C(F)(F)F [Example 84, 2-(3-Chloro-phenylamino)-4-trifluoromethyl-pyrimidine-5-carboxylic acid cyclopropylmethyl-amide] | 6.00 to 6.52 | > 50 | –
O=C(c1cnc(Nc2cc(Cl)ccc2Cl)nc1C(F)(F)F)N1CCCCC1 [Example 85, 1-[2-(2,5-Dichloro-phenylamino)-4-tri-fluoromethyl-pyrimidin-5-yl]-1-piperidin-1-yl-methanone] | 6.00 to 6.52 | > 50 | –
O=C(NCC1(O)CCOCC1)c1cnc(Nc2cccc(Br)c2)nc1C(F)(F)F [Example 87, 2-(3-Bromophenyl-amino)-4-trifluoromethyl-pyrimidine-5-carboxylic acid (4-hydroxytetrahydropyran-4-ylmethyl)amide] | 6.00 to 6.52 | > 50 | –
O=C(NCC1CCCCC1)c1cnc(Nc2cc(C(F)(F)F)cc(C(F)(F)F)c2)nc1C(F)(F)F [Example 88, 2-(3,5-Bis-trifluoromethyl-phenylamino)-4-trifluoromethyl-pyrimidine-5-carboxylic acid cyclohexylmethyl-amide] | 6.00 to 6.52 | > 50 | –
N#Cc1cc(C#N)cc(Nc2ncc(C(=O)NCC3CCCCC3)c(C(F)(F)F)n2)c1 [Example 89, 2-(3,5-Dicyano-phenylamino)-4-trifluoromethyl-pyrimidine-5-carboxylic acid cyclohexylmethyl-amide] | 6.00 to 6.52 | > 50 | –
O=C(NCC1CCCCC1)c1cnc(Nc2cc(F)cc(C(F)(F)F)c2)nc1C(F)(F)F [Example 90, 2-(3-Fluoro-5-trifluoromethyl-phenylamino)-4-trifluoromethyl-pyrimidine-5-carboxylic acid cyclohexylmethyl-amide] | 6.00 to 6.52 | > 50 | –
O=C(NCC1CCCCC1)c1cnc(Nc2cc(Br)cc(C(F)(F)F)c2)nc1C(F)(F)F [Example 91, 2-(3-Bromo-5-trifluoromethyl-phenylamino)-4-trifluoromethyl-pyrimidine-5-carboxylic acid cyclohexylmethyl-amide] | 6.00 to 6.52 | > 50 | –
Cc1cccc(Nc2ncc(C(=O)NCC3CCCCC3)c(C(F)(F)F)n2)c1Cl [Example 92, 2-(2-Chloro-3-methyl-phenylamino)-4-trifluoromethyl-pyrimidine-5-carboxylic acid cyclohexylmethyl-amide] | 6.00 to 6.52 | > 50 | –
Cc1c(Cl)cccc1Nc1ncc(C(=O)NCC2CCCCC2)c(C(F)(F)F)n1 [Example 93, 2-(3-Chloro-2-methyl-phenylamino)-4-trifluoromethyl-pyrimidine-5-carboxylic acid cyclohexylmethyl-amide] | 6.00 to 6.52 | > 50 | –
Cc1cc(Cl)ccc1Nc1ncc(C(=O)NCC2CCCCC2)c(C(F)(F)F)n1 [Example 94, 2-(4-Chloro-2-methyl-phenylamino)-4-trifluoromethyl-pyrimidine-5-carboxylic acid cyclohexylmethyl-amide] | 6.00 to 6.52 | > 50 | –
Cc1cc(Cl)cc(C)c1Nc1ncc(C(=O)NCC2CCCCC2)c(C(F)(F)F)n1 [Example 95, 2-(4-Chloro-2,6-dimethyl-phenylamino)-4-trifluoromethyl-pyrimidine-5-carboxylic acid cyclohexylmethyl-amide] | 6.00 to 6.52 | > 50 | –
O=C(NCC1CCCC1)c1cnc(Nc2cc(F)cc(F)c2)nc1C(F)(F)F [Example 96, 2-(3,5-Difluoro-phenylamino)-4-trifluoromethyl-pyrimidine-5-carboxylic acid cyclopentylmethyl-amide] | 6.00 to 6.52 | > 50 | –
O=C(NCC1CCCC1)c1cnc(Nc2ccc(C(F)(F)F)c(F)c2)nc1C(F)(F)F [Example 97, 2-(4-Trifluoromethyl-3-fluorophenylamino)-4-trifluoromethyl-pyrimidine-5-carboxylic acid cyclopentylmethyl-amide] | – | – | 6.00 to 6.52
O=C(NCC1CCOCC1)c1cnc(Nc2ccc(F)cc2F)nc1C(F)(F)F [Example 98, 2-(2,4-Difluorophenylamino)-4-trifluoromethyl-pyrimidine-5-carboxylic acid (tetrahydro-pyran-4-ylmethyl)-amide] | 6.00 to 6.52 | > 50 | –
O=C(NCC1CCOCC1)c1cnc(Nc2ccc(Cl)cc2F)nc1C(F)(F)F [Example 99, 2-(2-Fluoro-4-chlorophenylamino)-4-trifluoromethyl-pyrimidine-5-carboxylic acid (tetrahydro-pyran-4-ylmethyl)-amide] | 6.00 to 6.52 | > 50 | –
O=C(NCC1CCCCC1)c1cnc(Nc2ccc(F)cc2C(F)(F)F)nc1C(F)(F)F [Example 100, 2-(2-Trifluoromethyl-4-fluorophenylamino)-4-trifluoromethyl-pyrimidine-5-carboxylic acid cyclohexylmethyl-amide] | 6.00 to 6.52 | > 50 | –
O=C(NCC1CCC1)c1cnc(Nc2ccc(F)cc2C(F)(F)F)nc1C(F)(F)F [Example 101, 2-(2-Trifluoromethyl-4-fluorophenylamino)-4-trifluoromethyl-pyrimidine-5-carboxylic acid cyclobutylmethyl-amide] | 6.00 to 6.52 | > 50 | –
O=C(NCC1CCC1)c1cnc(Nc2ccc(C(F)(F)F)cc2Cl)nc1C(F)(F)F [Example 102, 2-(2-Chloro-4-trifluoromethylphenylamino)-4-trifluoromethyl-pyrimidine-5-carboxylic acid cyclobutylmethyl-amide] | 6.00 to 6.52 | > 50 | –
N#Cc1ccc(Nc2ncc(C(=O)NCC3CCC3)c(C(F)(F)F)n2)c(Cl)c1 [Example 103, 2-(2-Chloro-4-cyanophenylamino)-4-trifluoromethyl-pyrimidine-5-carboxylic acid cyclobutylmethyl-amide] | 6.00 to 6.52 | > 50 | –
O=C(NCC1CCOCC1)c1cnc(Nc2ccc(Cl)cc2C(F)(F)F)nc1C(F)(F)F [Example 104, 2-(2-Trifluoromethyl-4-chlorophenylamino)-4-trifluoromethyl-pyrimidine-5-carboxylic acid (tetrahydro-pyran-4-ylmethyl)-amide] | 6.00 to 6.52 | > 50 | –

Source: patent publication US20080132505A1 (Glaxo Group Limited, priority 2004, published 2008)
